These results are taken from ChEMBL document CHEMBL1201862, “PubChem BioAssay data set” (2004).

The source made the active and inactive calls.

Test [1] concerns the target T1, Heat shock factor protein 1 (Mus musculus, UniProt P38532).
T1 sequence (P38532 whole entry): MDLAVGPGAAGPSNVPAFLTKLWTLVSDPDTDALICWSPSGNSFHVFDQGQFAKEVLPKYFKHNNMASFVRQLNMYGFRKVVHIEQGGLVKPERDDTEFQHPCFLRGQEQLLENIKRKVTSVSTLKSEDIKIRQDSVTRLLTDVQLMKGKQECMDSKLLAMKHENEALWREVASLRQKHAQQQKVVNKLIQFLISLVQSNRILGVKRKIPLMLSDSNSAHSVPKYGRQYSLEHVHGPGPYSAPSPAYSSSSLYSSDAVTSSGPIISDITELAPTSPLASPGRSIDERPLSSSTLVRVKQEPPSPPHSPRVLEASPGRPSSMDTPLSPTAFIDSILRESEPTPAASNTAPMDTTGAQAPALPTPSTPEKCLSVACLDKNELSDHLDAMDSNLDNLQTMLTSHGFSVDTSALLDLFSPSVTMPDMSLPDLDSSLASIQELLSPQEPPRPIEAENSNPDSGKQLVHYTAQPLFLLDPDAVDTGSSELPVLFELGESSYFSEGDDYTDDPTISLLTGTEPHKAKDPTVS
As to the kind of experiment: decrease of HSF1-responsive luciferase luminescence – cell-based, NIH3T3, dose retest, confirmation (AID 2382).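 Further: NIH3T3 fibroblasts with HSF1-driven luciferase reporter stressed by proteasome inhibitor MG132; luminescence from HSF1-driven luciferase expression after 8 hours of MG132 stress.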 In kind it is functional.

Test [2] can be described thus: HPDE-C7 pancreatic duct cell viability loss – fluorescence, HTS (AID 430). The test is classed as functional, cell-based. As to conditions: Homo sapiens.
A short description of test [3]: viability loss of HPDE-C7K cells – cell-based, fluorescence, HTS, primary screen (AID 431). In kind it is functional. As to conditions: Homo sapiens.
Test [4] has as its system HEK293. As to the kind of experiment: EBV LMP1 TES2 canonical NF-kB signalling blockers – cell-based, HEK293, luciferase, cherry-pick, dose response (AID 588343). As to conditions: Homo sapiens. The test is classed as functional.
Test [5] deals with Peroxisome proliferator-activated receptor gamma/Nuclear receptor coactivator 2 (Homo sapiens, UniProt P37231). The test is classed as functional.
The target in test [6] is Peroxisome proliferator-activated receptor gamma/Nuclear receptor coactivator 1 (Homo sapiens, UniProt P37231). The test is classed as functional.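 Further: agonist potency as compounds enhance coactivator SRC-1 recruitment to PPARgamma.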
The target of test [7] is Peroxisome proliferator-activated receptor gamma/Nuclear receptor coactivator 3 (Homo sapiens, UniProt P37231). In kind it is functional.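 Further: agonist potency for raising coactivator recruitment to the receptor.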
Test [8] has as its target T2, Rac GTPase-activating protein 1 (Homo sapiens, UniProt Q9H0H5).
T2 sequence (Q9H0H5 whole entry): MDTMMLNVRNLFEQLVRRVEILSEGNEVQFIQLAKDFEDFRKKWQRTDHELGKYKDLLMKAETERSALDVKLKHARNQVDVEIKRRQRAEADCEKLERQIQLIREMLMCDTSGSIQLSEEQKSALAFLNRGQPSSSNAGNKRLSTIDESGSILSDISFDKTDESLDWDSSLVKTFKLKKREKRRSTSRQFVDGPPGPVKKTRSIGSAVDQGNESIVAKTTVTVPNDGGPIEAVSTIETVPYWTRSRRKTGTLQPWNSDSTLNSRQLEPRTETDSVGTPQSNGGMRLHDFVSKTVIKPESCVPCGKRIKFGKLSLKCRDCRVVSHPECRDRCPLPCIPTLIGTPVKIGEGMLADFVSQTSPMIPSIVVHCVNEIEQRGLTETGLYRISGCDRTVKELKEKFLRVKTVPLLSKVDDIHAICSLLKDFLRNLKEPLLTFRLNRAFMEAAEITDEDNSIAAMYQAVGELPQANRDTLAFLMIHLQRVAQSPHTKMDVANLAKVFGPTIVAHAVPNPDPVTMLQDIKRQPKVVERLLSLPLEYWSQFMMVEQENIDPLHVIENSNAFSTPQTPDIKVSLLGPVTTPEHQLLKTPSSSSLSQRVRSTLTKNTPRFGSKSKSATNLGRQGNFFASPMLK
As to the kind of experiment: blockers of MgcRacGAP-driven Rac1 GTP hydrolysis – biochemical, ADP Hunter fluorescence, primary and confirmatory, confirmation (AID 624330). The test is classed as functional.

Test [9] concerns the target T3, NADPH oxidase 1 (Homo sapiens, UniProt Q9Y5S8).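 Further: Cell-based assay with luminescence read-out, IC50 derived from inhibitor dose-response curves; intracellular ROS from endogenous NOX1 in intact HT29 colon cancer cells; potency of inhibitors that lower the ROS luminescence signal.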
T3 sequence (Q9Y5S8 whole entry): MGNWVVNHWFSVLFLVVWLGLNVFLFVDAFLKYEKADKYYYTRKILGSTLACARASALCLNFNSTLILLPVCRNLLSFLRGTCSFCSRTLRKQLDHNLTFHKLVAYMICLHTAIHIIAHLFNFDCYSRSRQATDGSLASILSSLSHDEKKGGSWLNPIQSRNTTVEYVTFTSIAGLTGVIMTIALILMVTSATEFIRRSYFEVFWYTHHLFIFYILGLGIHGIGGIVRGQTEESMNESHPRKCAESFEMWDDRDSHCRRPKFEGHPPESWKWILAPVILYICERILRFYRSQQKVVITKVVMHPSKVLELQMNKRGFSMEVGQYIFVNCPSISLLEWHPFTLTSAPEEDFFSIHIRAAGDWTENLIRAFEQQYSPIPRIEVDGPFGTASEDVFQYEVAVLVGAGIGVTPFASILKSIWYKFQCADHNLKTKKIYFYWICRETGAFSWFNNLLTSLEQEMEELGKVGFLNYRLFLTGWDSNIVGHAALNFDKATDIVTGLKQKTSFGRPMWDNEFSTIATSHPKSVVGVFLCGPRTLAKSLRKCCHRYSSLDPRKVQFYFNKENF
In kind it is functional, cell-based.

The target of test [10] is T4, Estrogen receptor (Homo sapiens, UniProt P03372).
T4 sequence (P03372 whole entry): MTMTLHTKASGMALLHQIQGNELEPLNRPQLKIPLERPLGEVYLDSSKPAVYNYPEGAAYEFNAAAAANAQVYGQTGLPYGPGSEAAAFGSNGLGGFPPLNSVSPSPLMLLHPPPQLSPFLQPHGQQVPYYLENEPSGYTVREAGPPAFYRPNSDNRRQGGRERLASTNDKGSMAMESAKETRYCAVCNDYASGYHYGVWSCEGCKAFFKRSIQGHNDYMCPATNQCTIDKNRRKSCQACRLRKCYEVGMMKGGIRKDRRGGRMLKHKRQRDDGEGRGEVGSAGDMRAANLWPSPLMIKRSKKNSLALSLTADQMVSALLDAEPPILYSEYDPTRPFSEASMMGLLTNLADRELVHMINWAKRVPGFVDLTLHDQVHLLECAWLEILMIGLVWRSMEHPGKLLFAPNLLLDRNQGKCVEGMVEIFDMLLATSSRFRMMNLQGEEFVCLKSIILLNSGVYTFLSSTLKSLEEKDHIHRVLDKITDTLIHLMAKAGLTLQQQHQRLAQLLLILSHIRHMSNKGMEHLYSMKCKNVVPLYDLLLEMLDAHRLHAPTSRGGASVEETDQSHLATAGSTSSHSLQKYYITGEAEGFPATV

In test [11] the target is T5, Estrogen receptor beta (Homo sapiens, UniProt Q92731).
Test [12] addresses T5, Estrogen receptor beta. Description: blockers of SRC-3 recruitment to ERβ – biochemical, ELISA, streptavidin-HRP readout, orthogonal assay, confirmation (AID 1060).
Test [13] has as its system Streptococcus sp. 'group A'. As to the kind of experiment: Streptococcus pyogenes SK(-)GAS viability under kanamycin – luminescence, BacTiterGlo, confirmation, counter-screen for streptokinase expression inhibitor project, dose response (AID 1900). In kind it is functional, organism-based.
The target of test [14] is T6, Streptokinase A (Streptococcus pyogenes serotype M1, UniProt P10520).
T6 sequence (P10520 whole entry): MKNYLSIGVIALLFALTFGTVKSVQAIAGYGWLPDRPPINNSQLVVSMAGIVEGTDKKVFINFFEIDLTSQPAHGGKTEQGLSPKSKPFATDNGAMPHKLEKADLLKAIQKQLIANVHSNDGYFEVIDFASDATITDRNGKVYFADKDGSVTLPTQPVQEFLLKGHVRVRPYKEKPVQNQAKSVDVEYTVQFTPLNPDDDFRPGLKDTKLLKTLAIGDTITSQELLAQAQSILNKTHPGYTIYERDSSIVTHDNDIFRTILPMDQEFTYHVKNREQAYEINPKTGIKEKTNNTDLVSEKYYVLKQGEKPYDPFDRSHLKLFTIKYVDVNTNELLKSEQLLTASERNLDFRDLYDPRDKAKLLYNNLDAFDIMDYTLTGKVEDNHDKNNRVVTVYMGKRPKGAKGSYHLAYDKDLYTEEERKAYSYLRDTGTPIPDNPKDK
Description: viability-normalized secreted streptokinase activity reduction – plasminogen activation absorbance, OD405, dose response (AID 1914).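 Further: secreted streptokinase activity via plasminogen activation per viability signal from cell pellet.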 The test is classed as functional, Streptococcus pyogenes M1 GAS.

Test [15] relates to Streptococcus. As to the kind of experiment: GAS UMAA2166 growth inhibition – luminescence, BacTiterGlo, counter-screen for streptokinase expression inhibitor project, dose response (AID 1915).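 Further: potency for reduction of bacterial viability or growth.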 In kind it is functional, organism-based. (In general: A counterscreen serves to expose hits that act by an unwanted route or on another target.)
Test [16] can be described thus: Luminescence Cell-Based Dose Retest to Confirm Inhibitors of Cancer Stem Cells. [Related pubchem assays (depositor defined):AID2717, AID2721]. The test is classed as functional. As to conditions: Homo sapiens.
Test [17] has as its target Nonstructural protein 1 (Influenza A virus, UniProt Q194T2). In kind it is functional, Influenza A virus (A/California/07/2009(H1N1)).
Test [18] deals with INS1. Description: INS-1E survival protection against cytokine death – cell-based, luminescence, retest, dose response (AID 449756).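 Further: cell death triggered by IL-1 beta plus TNF-alpha plus IFN-gamma mixture; protective hits raise ATP signal compared with cytokine alone wells.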 The note with it: Rattus norvegicus. The test is classed as functional.
Test [19] is described as follows: viability of uninfected HEp-2 cells – cell-based, HTS, cytotoxicity control for RSV inhibitor project, dose response (AID 2410). In kind it is functional. The note with it: human respiratory syncytial virus.
The target of test [20] is T7, Corticotropin-releasing factor receptor 2/Corticotropin-releasing factor-binding protein (Homo sapiens, UniProt P24387+Q13324).
T7 sequence (Q13324 whole entry): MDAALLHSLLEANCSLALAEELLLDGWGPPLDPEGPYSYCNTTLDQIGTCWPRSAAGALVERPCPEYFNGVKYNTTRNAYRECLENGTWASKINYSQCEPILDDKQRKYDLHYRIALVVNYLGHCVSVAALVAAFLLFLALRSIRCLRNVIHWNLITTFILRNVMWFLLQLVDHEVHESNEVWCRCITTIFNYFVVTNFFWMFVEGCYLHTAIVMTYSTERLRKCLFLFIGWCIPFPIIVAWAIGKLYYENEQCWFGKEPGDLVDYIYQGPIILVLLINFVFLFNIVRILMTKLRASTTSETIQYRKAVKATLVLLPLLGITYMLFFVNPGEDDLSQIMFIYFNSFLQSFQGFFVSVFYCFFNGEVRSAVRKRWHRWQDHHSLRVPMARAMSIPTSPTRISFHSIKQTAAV
T7 sequence (P24387 whole entry): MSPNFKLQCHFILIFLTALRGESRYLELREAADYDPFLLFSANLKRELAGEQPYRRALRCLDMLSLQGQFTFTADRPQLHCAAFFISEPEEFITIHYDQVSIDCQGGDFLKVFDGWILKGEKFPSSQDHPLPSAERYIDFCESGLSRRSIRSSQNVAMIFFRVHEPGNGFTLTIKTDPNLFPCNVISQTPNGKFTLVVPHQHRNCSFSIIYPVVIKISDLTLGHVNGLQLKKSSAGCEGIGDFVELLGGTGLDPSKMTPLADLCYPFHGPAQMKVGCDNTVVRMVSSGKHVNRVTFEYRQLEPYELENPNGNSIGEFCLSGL
Description: Dose Response confirmation of uHTS hits for small molecule antagonists of the CRF-binding protein and CRF-R2 receptor complex. In kind it is functional. As to conditions: read-out: IC50_Mean.

The target of test [21] is T7, Corticotropin-releasing factor receptor 2/Corticotropin-releasing factor-binding protein. Description: activators of CRF receptor 2 with binding protein – uHTS hits, confirmation (AID 602473). As to conditions: read-out: EC50_Mean. The test is classed as functional.
Test [22] in a line: blockers of CRF-binding protein–CRF-R2 complex – cell-based, uHTS hits, 384-well, dose response (AID 651639). In kind it is functional, Homo sapiens. The note with it: read-out: IC50_Mean.
Test [23] in a line: cells.

T5 sequence (Q92731 whole entry): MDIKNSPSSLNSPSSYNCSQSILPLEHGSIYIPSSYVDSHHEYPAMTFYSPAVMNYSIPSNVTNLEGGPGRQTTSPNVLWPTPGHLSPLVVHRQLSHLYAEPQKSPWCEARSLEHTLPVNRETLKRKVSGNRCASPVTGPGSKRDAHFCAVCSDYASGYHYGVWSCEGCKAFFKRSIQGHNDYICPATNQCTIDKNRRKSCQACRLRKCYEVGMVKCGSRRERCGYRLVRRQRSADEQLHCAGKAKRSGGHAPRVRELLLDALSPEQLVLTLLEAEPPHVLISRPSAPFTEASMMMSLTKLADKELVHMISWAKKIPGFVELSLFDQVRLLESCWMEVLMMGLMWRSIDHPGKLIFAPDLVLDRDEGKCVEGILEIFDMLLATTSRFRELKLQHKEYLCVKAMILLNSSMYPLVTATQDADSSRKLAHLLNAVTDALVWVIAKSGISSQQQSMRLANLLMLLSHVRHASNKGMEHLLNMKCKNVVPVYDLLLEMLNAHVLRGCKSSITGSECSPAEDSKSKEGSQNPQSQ
Sequence of Peroxisome proliferator-activated receptor gamma/Nuclear receptor coactivator 1 (P37231 whole entry): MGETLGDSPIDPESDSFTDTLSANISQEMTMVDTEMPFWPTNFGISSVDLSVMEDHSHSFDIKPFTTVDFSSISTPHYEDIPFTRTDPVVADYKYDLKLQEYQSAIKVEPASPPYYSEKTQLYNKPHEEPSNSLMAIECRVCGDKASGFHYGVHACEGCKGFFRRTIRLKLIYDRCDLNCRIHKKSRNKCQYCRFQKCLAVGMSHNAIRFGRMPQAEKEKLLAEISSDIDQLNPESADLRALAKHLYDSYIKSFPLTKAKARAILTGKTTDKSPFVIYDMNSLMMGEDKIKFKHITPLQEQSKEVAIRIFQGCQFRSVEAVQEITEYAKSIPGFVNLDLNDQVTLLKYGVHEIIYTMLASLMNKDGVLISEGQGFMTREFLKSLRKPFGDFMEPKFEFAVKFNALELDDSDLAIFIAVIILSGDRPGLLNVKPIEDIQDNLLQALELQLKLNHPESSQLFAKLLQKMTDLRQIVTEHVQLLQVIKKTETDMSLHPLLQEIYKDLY
Sequence of Peroxisome proliferator-activated receptor gamma/Nuclear receptor coactivator 1 (Q15788 whole entry, further chain): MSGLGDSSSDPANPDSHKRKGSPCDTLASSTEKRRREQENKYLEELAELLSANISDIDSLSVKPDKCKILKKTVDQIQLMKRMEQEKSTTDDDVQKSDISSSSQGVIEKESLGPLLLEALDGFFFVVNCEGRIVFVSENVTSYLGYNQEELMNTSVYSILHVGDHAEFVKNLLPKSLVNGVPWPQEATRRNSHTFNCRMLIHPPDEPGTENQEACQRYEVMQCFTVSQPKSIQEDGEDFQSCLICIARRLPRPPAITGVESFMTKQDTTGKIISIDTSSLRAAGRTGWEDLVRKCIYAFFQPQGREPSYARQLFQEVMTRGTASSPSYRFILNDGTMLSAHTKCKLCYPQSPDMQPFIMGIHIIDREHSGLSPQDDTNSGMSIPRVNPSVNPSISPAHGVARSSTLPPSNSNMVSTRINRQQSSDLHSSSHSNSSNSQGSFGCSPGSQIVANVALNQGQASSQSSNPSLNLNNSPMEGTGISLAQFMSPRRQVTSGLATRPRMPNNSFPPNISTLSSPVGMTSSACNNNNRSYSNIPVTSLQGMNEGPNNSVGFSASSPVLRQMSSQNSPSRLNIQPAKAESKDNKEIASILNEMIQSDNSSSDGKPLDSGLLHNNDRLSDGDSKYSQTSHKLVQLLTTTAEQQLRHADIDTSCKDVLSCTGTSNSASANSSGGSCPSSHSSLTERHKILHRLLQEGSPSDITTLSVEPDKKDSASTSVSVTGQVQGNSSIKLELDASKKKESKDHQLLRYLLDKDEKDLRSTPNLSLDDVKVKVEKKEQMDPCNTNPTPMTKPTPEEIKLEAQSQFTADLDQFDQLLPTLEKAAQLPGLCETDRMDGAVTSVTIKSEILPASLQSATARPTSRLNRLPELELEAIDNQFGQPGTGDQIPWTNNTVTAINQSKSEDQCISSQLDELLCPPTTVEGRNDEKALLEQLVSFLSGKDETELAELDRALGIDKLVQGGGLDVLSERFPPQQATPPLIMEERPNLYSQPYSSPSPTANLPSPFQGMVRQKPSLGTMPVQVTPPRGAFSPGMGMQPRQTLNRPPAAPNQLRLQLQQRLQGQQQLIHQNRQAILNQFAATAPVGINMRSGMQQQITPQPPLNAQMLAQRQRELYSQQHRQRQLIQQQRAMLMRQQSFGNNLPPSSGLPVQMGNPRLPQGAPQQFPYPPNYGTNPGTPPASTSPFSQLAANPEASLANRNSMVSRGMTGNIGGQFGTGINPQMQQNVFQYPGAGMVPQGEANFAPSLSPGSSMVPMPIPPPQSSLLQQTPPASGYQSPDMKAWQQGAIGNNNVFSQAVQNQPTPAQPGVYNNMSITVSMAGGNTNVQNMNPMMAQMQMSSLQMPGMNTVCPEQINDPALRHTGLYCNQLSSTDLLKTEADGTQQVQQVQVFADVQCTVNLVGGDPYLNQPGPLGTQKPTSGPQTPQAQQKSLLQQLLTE
Sequence of Peroxisome proliferator-activated receptor gamma/Nuclear receptor coactivator 2 (P37231 whole entry): as the sequence (P37231 whole entry) above
Sequence of Peroxisome proliferator-activated receptor gamma/Nuclear receptor coactivator 2 (Q15596 whole entry, further chain): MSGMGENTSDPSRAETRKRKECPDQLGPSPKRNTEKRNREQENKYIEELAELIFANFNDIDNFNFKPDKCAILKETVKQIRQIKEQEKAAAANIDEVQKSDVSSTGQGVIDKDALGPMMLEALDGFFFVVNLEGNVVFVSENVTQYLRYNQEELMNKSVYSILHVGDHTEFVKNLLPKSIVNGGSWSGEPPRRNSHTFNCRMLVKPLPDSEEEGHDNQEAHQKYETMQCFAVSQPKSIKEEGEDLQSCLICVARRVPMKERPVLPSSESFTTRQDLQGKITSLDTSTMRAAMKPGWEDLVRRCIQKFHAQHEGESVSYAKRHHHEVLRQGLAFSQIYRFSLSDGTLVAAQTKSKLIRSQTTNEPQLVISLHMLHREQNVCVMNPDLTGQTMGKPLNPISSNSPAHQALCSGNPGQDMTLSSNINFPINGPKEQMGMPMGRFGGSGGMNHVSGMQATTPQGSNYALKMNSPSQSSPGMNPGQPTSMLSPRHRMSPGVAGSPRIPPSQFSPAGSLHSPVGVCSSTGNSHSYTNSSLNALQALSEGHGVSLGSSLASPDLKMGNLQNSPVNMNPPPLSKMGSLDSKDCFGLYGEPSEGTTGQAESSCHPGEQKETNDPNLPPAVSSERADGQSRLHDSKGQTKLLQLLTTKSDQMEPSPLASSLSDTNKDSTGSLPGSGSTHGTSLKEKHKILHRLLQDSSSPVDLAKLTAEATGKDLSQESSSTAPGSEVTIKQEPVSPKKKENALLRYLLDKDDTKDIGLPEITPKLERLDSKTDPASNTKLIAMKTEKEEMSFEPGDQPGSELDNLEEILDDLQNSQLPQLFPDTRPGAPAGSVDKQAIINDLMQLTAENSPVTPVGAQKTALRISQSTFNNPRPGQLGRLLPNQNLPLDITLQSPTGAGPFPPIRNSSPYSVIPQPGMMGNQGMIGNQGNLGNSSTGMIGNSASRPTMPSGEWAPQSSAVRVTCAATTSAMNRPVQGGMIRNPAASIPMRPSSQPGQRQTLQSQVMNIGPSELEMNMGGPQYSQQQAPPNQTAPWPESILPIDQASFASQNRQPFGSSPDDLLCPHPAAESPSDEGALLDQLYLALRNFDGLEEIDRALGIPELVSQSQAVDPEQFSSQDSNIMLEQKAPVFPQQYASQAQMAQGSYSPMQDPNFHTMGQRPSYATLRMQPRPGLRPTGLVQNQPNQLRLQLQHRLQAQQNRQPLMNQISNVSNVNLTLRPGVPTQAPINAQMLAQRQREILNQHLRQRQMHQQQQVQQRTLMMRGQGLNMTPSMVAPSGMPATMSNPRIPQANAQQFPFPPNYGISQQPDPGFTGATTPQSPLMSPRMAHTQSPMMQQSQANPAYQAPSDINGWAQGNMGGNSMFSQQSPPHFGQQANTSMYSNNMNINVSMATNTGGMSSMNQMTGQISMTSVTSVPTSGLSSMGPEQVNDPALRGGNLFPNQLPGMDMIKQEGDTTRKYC
Sequence of Nonstructural protein 1 (Q194T2 whole entry): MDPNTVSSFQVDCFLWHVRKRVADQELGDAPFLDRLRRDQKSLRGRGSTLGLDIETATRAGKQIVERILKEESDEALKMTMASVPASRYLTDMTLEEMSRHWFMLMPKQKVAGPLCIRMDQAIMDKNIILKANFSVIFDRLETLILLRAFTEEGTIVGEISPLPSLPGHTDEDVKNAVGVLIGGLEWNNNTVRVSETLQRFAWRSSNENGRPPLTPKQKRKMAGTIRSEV

A word on the AC50: it is the concentration giving half of the maximal activity seen. In the case of `Cc1nn(-c2ccccc2)c(Cl)c1C(=O)N1CCN(c2ncnc3c2cnn3-c2ccccc2)CC1`, the EC50 was 5.06 µM (active) in test [1], 8.56 µM (active) in test [2] and 9.4 µM (active) in test [3]. The AC50 in [4] was 5.24 µM (active).

Consider `CCOCCCNCc1ccc(OC)c(OC)c1`, for which the EC50 in test [5], in [6] and in [7] was > 79.4 µM (not active) in each case.

As to `CCn1c(SCC(=O)Nc2ccc(N(C)C)cc2)nnc1-c1cccc(C)c1`, the EC50 in test [1] was > 195 µM (not active); in test [2], > 20 µM (not active); in test [3], 15.8 µM (active). For the same compound, in [8], the IC50 was 65.2 µM (active).

Take `COc1ccc(C(=O)NCC(=O)N=Nc2c(O)n(Cc3ccccc3)c3ccccc23)cc1OC`: the EC50 in test [5], in test [6] and in test [7] was > 79.4 µM (not active) each time.

With `CC(=O)Nc1ccccc1OC(=O)c1sc2cc(Cl)ccc2c1Cl`, the IC50 in test [9] is > 17 µM (not active).

As for `COc1ccc2c(c1)c(=O)oc1cc3oc(C)c(C)c3cc12`, the IC50 in test [10] is 6.9 µM (active); in [11] it was 12.6 µM (active); in test [12] it was 0.205 µM (not active).

For the compound `CCc1ccc2nc(O)c(C3C(C#N)=C(N)Oc4c3ccc3cccnc43)cc2c1` (stereo not drawn), the EC50 was 16.1 µM (active) in test [13], > 150 µM (not active) in test [14] and > 150 µM (not active) in test [15]. In addition, the IC50 in test [10] was 11.3 µM (active); in [11], 12 µM (active); in test [12], 2.79 µM (not active); in [17] it was 32.6 µM (active). Also, the AC50 in [16] is 6.07 µM (active); in test [18] it was 1.46 µM (active).

Usually CC50 stands for the concentration that lowers cell viability or growth by half. As for `Cc1ccccc1-c1nnc(S)n1/N=C/c1c(C)nn(-c2ccccc2)c1C`, in test [19], the 50% cytotoxic concentration (CC50) is 29.1 µM (active). For the same compound, the figures for the IC50 in [20], in [22] and in test [23] were 8.4 µM (active), 12.3 µM (active) and 11.3 µM (active), respectively. In test [21], the EC50 is > 53 µM (inactive).

Consider `COc1cccc(-c2nc(-c3ccccc3)c(-c3ccccc3)[nH]2)c1`, for which, in [9], the IC50 is on record as > 17 µM (not active).
